In brackets after ≈: the same amount, converted by molar mass.
Test system: S. pyogenes iMLS resistante strain
Assay: MIC by broth dilution (NCCLS M7-A2), S. pyogenes iMLS resistant strain
Format: cell-based
Settings: MIC = concentration showing 90% growth inhibition, tested range 64 to 0.125 μg/ml
Procedure: Final concentration of test substances were in range from 64 to 0.125 μg/ml. MIC levels for all compound were determinated on panel of susceptible and resistant Gram positive bacterial strains (S. aureus, S. pneumoniae and S. pyogenes) and on Gram negative strains (E. coli, H. influenzae, E. faecalis, M. catarrhalis).

| MIC | Structure (SMILES) |
| --- | --- |
| 2 µg/mL (≈ 1.98 µM) | CCC1OC(=O)C(C)C(OC2CC(C)(OC)C(O)C(C)O2)C(C)C(OC2OC(C)CC(N(C)C)C2O)C(C)(O)CC(C)CN(C(=O)Nc2ccc(S(=O)(=O)Nc3ccccc3)cc2)C(C)C(O)C1(C)O (centres unmarked) [Example 4, 9-Deoxo-9-dihydro-9a-N-{N′-[4-(phenylaminosulfonyl)phenyl]carbamoyl}-9a-aza-9a-homoerithromycin A] |
| 2 µg/mL (≈ 2.14 µM) | CCC1OC(=O)C(C)C(OC2CC(C)(OC)C(O)C(C)O2)C(C)C(OC2OC(C)CC(N(C)C)C2O)C(C)(O)CC(C)CN(C(=O)Nc2ccc(S(N)(=O)=O)cc2)C(C)C(O)C1(C)O (centres unmarked) [Example 3, 9-Deoxo-9-dihydro-9a-N-{[4-(aminosulfonyl)phenyl]carbamoyl}-9a-aza-9a-homoerithromycin A] |

Source: patent US7365056B2, “Substituted 9a-N-(N′-(sulfonyl)phenylcarbamoyl)derivatives of 9-deoxo-9-dihydro-9a-aza-9a-homoerithomycin A and 5-0-desosaminyl-9-deoxo-9-dihydro-9-a-aza-9a-homoerithronolide A” (GlaxoSmithKline istrazivacki centar Zagreb d.o, priority 2002, dated 2008)
